Assay results from US20230322761A1, “DEGRADATION OF BRUTON'S TYROSINE KINASE (BTK) BY CONJUGATION OF BTK INHIBITORS WITH E3 LIGASE LIGAND AND METHODS OF USE” (BEIGENE, LTD., priority 2020, published 2023).

target: T1, BTK (Homo sapiens, UniProt Q06187); assay: BTK degradation in TMD-8 cells, HTRF assay after 6 h treatment; assay type: cell-based; details: IC50 (DC50) of BTK degradation
T1 construct: endogenous in cells; host or cells: TMD-8 cells
In short: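 Remaining BTK was quantified by HTRF in lysates of TMD-8 cells after 6 h exposure to an 8-point, 6-fold compound series (500× stocks in DMSO starting at 1 mM; 0.2% DMSO). Lysis 30 min, antibodies overnight at room temperature, ratio read at 665/620 nm; DC50 fitted with a four-parameter logistic equation.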

T1 sequence (Q06187 whole entry): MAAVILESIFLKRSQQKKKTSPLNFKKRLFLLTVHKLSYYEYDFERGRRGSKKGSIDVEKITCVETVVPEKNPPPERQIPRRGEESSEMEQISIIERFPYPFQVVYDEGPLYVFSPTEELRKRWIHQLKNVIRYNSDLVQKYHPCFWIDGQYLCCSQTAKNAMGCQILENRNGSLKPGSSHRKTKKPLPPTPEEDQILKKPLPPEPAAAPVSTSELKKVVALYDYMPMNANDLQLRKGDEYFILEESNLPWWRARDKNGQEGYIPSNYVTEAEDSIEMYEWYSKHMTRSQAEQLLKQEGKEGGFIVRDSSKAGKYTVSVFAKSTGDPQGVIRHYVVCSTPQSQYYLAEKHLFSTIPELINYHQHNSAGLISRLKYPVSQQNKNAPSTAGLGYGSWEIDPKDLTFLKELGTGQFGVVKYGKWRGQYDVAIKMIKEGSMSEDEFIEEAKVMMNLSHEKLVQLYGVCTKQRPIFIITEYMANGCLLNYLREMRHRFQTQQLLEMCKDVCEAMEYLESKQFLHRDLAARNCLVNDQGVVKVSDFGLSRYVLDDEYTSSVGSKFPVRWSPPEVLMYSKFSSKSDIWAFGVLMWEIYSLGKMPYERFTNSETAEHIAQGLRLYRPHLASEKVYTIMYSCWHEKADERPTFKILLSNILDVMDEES

DC50 [nM] | SMILES
17.8 | Cc1cc(-c2n[nH]c3ncc(-c4ccc(N5CCN(CCc6ccc([C@@H]7CCC(=O)NC7=O)cc6)CC5)cc4)cc23)ccc1CNC(=O)c1cn(C(C)(C)C)nn1 [Example 151, (S)-1-(tert-butyl)-N-(4-(5-(4-(4-(4-(2,6-dioxopiperidin-3-yl)phenethyl)piperazin-1-yl)phenyl)-1H-pyrazolo[3,4-b]pyridin-3-yl)-2-methylbenzyl)-1H-1,2,3-triazole-4-carboxamide]
14.9 | Cc1cc(-c2n[nH]c3ncc(-c4ccc(N5CCN(CCC6CCN(c7ccc(C8CCC(=O)NC8=O)c(C)n7)CC6)CC5)cc4)cc23)ccc1[C@@H](C)NC(=O)c1noc(C(C)(C)C)n1 (stereo partly drawn) [Example 136, 5-(tert-butyl)-N-((1R)-1-(4-(5-(4-(4-(2-(1-(5-(2,6-dioxopiperidin-3-yl)-6-methylpyridin-2-yl)piperidin-4-yl)ethyl)piperazin-1-yl)phenyl)-1H-pyrazolo[3,4-b]pyridin-3-yl)-2-methylphenyl)ethyl)-1,2,4-oxadiazole-3-carboxamide]
1.75 | Cc1cc(-c2n[nH]c3ncc(-c4ccc(N5CCN(CC6CCN(c7ccc(N8CCC(=O)NC8=O)c(C)c7)CC6)CC5)cn4)cc23)ccc1[C@@H](C)NC(=O)c1noc(C(C)(C)C)n1 [Example 78, (R)-5-(tert-butyl)-N-(1-(4-(5-(5-(4-((1-(4-(2,4-dioxotetrahydropyrimidin-1(2H)-yl)-3-methylphenyl)piperidin-4-yl)methyl)piperazin-1-yl)pyridin-2-yl)-1H-pyrazolo[3,4-b]pyridin-3-yl)-2-methylphenyl)ethyl)-1,2,4-oxadiazole-3-carboxamide]
17.8 | Cc1c(CNC(=O)c2noc(C(C)(C)C)n2)ccc(-c2n[nH]c3ncc(-c4ccc(N5CCN(CC6CCN(c7ccc(N8CCC(=O)NC8=O)cc7)CC6)CC5)cc4)cc23)c1F [Example 99, 5-(tert-butyl)-N-(4-(5-(4-(4-((1-(4-(2,4-dioxotetrahydropyrimidin-1(2H)-yl)phenyl)piperidin-4-yl)methyl)piperazin-1-yl)phenyl)-1H-pyrazolo[3,4-b]pyridin-3-yl)-3-fluoro-2-methylbenzyl)-1,2,4-oxadiazole-3-carboxamide]
2.92 | Cc1cc(-c2n[nH]c3ncc(-c4ccc(N5CCN(CCc6ccc(C7CCC(=O)NC7=O)c(C)n6)CC5)cc4)cc23)ccc1[C@@H](C)NC(=O)c1noc(C(C)(C)C)n1 (stereo partly drawn) [Example 155, 5-(tert-butyl)-N-((1R)-1-(4-(5-(4-(4-(2-(5-(2,6-dioxopiperidin-3-yl)-6-methylpyridin-2-yl)ethyl)piperazin-1-yl)phenyl)-1H-pyrazolo[3,4-b]pyridin-3-yl)-2-methylphenyl)ethyl)-1,2,4-oxadiazole-3-carboxamide]
8.39 | Cc1cc(-c2n[nH]c3ncc(-c4ccc(N5CCN(CC(F)(F)c6ccc(C7CCC(=O)NC7=O)cc6)CC5)cc4)cc23)ccc1[C@@H](C)NC(=O)c1noc(C(C)(C)C)n1 (stereo partly drawn) [Example 175, 5-(tert-butyl)-N-((1R)-1-(4-(5-(4-(4-(2-(4-(2,6-dioxopiperidin-3-yl)phenyl)-2,2-difluoroethyl)piperazin-1-yl)phenyl)-1H-pyrazolo[3,4-b]pyridin-3-yl)-2-methylphenyl)ethyl)-1,2,4-oxadiazole-3-carboxamide]
3.85 | Cc1cc(-c2n[nH]c3ncc(-c4ccc(N5CCN(CCc6ccc(C7CCC(=O)NC7=O)cc6)CC5)cc4)cc23)ccc1[C@@H](C)NC(=O)c1nc(C(C)(C)C)no1 (stereo partly drawn) [Example 33, 3-(tert-butyl)-N-((1R)-1-(4-(5-(4-(4-(4-(2,6-dioxopiperidin-3-yl)phenethyl)piperazin-1-yl)phenyl)-1H-pyrazolo[3,4-b]pyridin-3-yl)-2-methylphenyl)ethyl)-1,2,4-oxadiazole-5-carboxamide]
3.44 | Cc1c([C@@H](C)NC(=O)c2noc(C(C)(C)C)n2)ccc(-c2n[nH]c3ncc(-c4ccc(N5CCN(CC6CCN(c7ccc(N8CCC(=O)NC8=O)cc7)CC6)CC5)cc4)cc23)c1F [Example 43, (R)-5-(tert-butyl)-N-(1-(4-(5-(4-(4-((1-(4-(2,4-dioxotetrahydropyrimidin-1(2H)-yl)phenyl)piperidin-4-yl)methyl)piperazin-1-yl)phenyl)-1H-pyrazolo[3,4-b]pyridin-3-yl)-3-fluoro-2-methylphenyl)ethyl)-1,2,4-oxadiazole-3-carboxamide]
6.79 | Cc1cc(-c2n[nH]c3ncc(-c4ccc(N5CC6CC5CN6CC5CCN(c6ccc(N7CCC(=O)NC7=O)cc6)CC5)cn4)cc23)ccc1[C@@H](C)NC(=O)c1noc(C(C)(C)C)n1 (stereo partly drawn) [Example 127, 5-(tert-butyl)-N-((1R)-1-(4-(5-(5-(5-((1-(4-(2,4-dioxotetrahydropyrimidin-1(2H)-yl)phenyl)piperidin-4-yl)methyl)-2,5-diazabicyclo[2.2.1]heptan-2-yl)pyridin-2-yl)-1H-pyrazolo[3,4-b]pyridin-3-yl)-2-methylphenyl)ethyl)-1,2,4-oxadiazole-3-carboxamide]
6.16 | Cc1cc(-c2n[nH]c3ncc(-c4ccc(N5CCN(C6CC(c7ccc([C@H]8CCC(=O)NC8=O)cc7)C6)CC5)cc4)cc23)ccc1[C@@H](C)NC(=O)c1noc(C(C)(C)C)n1 (stereo partly drawn) [Example 224, 5-(tert-butyl)-N—((R)-1-(4-(5-(4-(4-((1S,3r)-3-(4-((R)-2,6-dioxopiperidin-3-yl)phenyl)cyclobutyl)piperazin-1-yl)phenyl)-1H-pyrazolo[3,4-b]pyridin-3-yl)-2-methylphenyl)ethyl)-1,2,4-oxadiazole-3-carboxamide]
1.84 | Cc1cc(CCN2CCN(c3ccc(-c4cnc5[nH]nc(-c6ccc([C@@H](C)NC(=O)c7noc(C(C)(C)C)n7)c(C)c6F)c5c4)cc3)CC2)ncc1C1CCC(=O)NC1=O (stereo partly drawn) [Example 148, 5-(tert-butyl)-N-((1R)-1-(4-(5-(4-(4-(2-(5-(2,6-dioxopiperidin-3-yl)-4-methylpyridin-2-yl)ethyl)piperazin-1-yl)phenyl)-1H-pyrazolo[3,4-b]pyridin-3-yl)-3-fluoro-2-methylphenyl)ethyl)-1,2,4-oxadiazole-3-carboxamide]
5.13 | Cc1cc(-c2n[nH]c3ncc(-c4ccc(N5CCN(CC6CCN(c7ccc(N8CCC(=O)NC8=O)cc7)CC6)CC5)cc4)cc23)c(F)cc1[C@@H](C)NC(=O)c1nc(C(C)(C)C)no1 [Example 46, (R)-3-(tert-butyl)-N-(1-(4-(5-(4-(4-((1-(4-(2,4-dioxotetrahydropyrimidin-1(2H)-yl)phenyl)piperidin-4-yl)methyl)piperazin-1-yl)phenyl)-1H-pyrazolo[3,4-b]pyridin-3-yl)-5-fluoro-2-methylphenyl)ethyl)-1,2,4-oxadiazole-5-carboxamide]
1.56 | Cc1cc(-c2n[nH]c3ncc(-c4ccc(N5CCN(C6CC(c7ccc([C@H]8CCC(=O)NC8=O)cc7)C6)CC5)cc4)cc23)ccc1[C@@H](C)NC(=O)c1noc(C(C)(C)C)n1 (stereo partly drawn) [Example 223, 5-(tert-butyl)-N—((R)-1-(4-(5-(4-(4-((1S,3r)-3-(4-((S)-2,6-dioxopiperidin-3-yl)phenyl)cyclobutyl)piperazin-1-yl)phenyl)-1H-pyrazolo[3,4-b]pyridin-3-yl)-2-methylphenyl)ethyl)-1,2,4-oxadiazole-3-carboxamide]

same assay, conditions: TMD8, maximum percentage of inhibition (degradation)

Dmax [%] | SMILES
99.4 | Cc1cc(-c2n[nH]c3ncc(-c4ccc(N5CCN(CCc6ccc(C7CCC(=O)NC7=O)cc6)CC5)cc4)cc23)ccc1[C@@H](C)NC(=O)c1nc(C(C)(C)C)no1 (stereo partly drawn) [Example 33, 3-(tert-butyl)-N-((1R)-1-(4-(5-(4-(4-(4-(2,6-dioxopiperidin-3-yl)phenethyl)piperazin-1-yl)phenyl)-1H-pyrazolo[3,4-b]pyridin-3-yl)-2-methylphenyl)ethyl)-1,2,4-oxadiazole-5-carboxamide]
